Entries after “also recorded” stand apart in the source; their conditions may differ.
Assays:
RGCs in WT retina = assay: YO-PRO-1 loading assay (dye permeability of RGCs) in WT retina after intravitreal injection; assay type: in vivo, mouse
Experimental: (§1) Intravitreal Injections. Before injection, mice were anesthetized with isoflurane (2%) and their pupils were dilated with tropicamide (1%) and phenylephrine (2.5%). Proparacaine (0.5%) was used as a topical analgesic. Genteal was applied under a glass coverslip to keep the cornea lubricated. An incision was made through the sclera below the ora serrata with a 30G needle and ˜1 μl of solution was injected into the vitreous with a blunt-ended 33G Hamilton syringe. After injection, the antibiotic tobramycin (0.3%) was applied to the eye. Final drug concentrations after intravitreal injection were: all-trans retinoic acid (ATRA, 100 nM), liarozole (100 μM), diethylaminobenzaldehyde (DEAB, 20 μM), citral (50 μM), BMS-493 (500 nM), and retinaldehyde (1 μM). The above values correspond to the final concentration in the eye after injecting 1 μl of drug accounting for a 5-fold dilution. An injection of PBS including 1% DMSO was used as vehicle control.
Yo-PRO-1 Loading Assay. After dissection, retinas were cut into thirds and mounted on a windowed nitrocellulose filter paper. Retinas were treated with 200 nM Yo-PRO-1 (Life Technologies) in oxygenated ACSF for 15 minutes, followed by treatment and then treated with nuclear ID (Enzo Life Sciences) at a 1:500 dilution for 3 minutes. ACSF was perfused continuously at 3 ml/min for a period of 5 minutes to wash away excess dye. In experiments employing TNP-ATP (200 μm), the retinas was pretreated with the compound for ten minutes before beginning YO-PRO-1 treatment.
Image analysis. All image analysis was performed using ImageJ or Fiji software (55,56). Yo-PRO-1 loading assay, ROIs were manually selected using the nuclear-ID channel based upon morphological characteristics. This was performed after computationally flattening the retina by performing a maximum Z projection onto a single plane. Following this, a background subtraction was performed with a rolling radius of 50 pixels. Cells identified as vascular endothelial cells or pericytes were not included in the analysis. This was confirmed using transillumination. A threshold for YO-PRO-1 loading was established by measuring the level of autofluorescence of untreated retinas in each channel and finding a baseline value with +2SD being the threshold for a YO-PRO-1 positive cell. Nuclear-ID was used to count the total number of cells within a field of view. The percentage of cells above the threshold was then calculated for comparison. For analysis of RARE double reporter virus assay, ROIs were manually selected on the RFP channel first and then superimposed to the GFP channel. Single cell values for both RFP and GFP were filtered by using a RFP minimum threshold established in naive unlabeled retinas.
Injections. Intravitreal injections: Adult mice and rats were intravitreally injected with drugs or viruses. Before injection, animals were anesthetized with isoflurane (2%) and their pupils were dilated with tropicamide (1%) and phenylephrine (2.5%). Proparacaine (0.5%) was used as a topical analgesic. Genteal was applied under a glass coverslip to keep the cornea lubricated. An incision was made through the sclera below the ora serrata with a 30G needle. Solutions were injected into the vitreous with a blunt-ended 33G Hamilton syringe. After injection, the antibiotic tobramycin (0.3%) was applied to the eye. Final drug concentrations (after 5-fold dilution in the vitreous) were: 100 nM all-trans retinoic acid (ATRA), 100 μM liarozole (24), 20 μM diethylaminobenzaldehyde (DEAB) (28,93), 50 μM citral, 500 nM BMS 493 (85), 1 μM retinaldehyde, and vehicle comprising of 1× phosphate buffered saline (PBS) containing 1% dimethyl sulfoxide (DMSO). Intravitreal injections were performed using AAV2 serotype only. WT and rd1 mice were injected with the RAR-reporter virus or the RARDN virus, at age 1-1.5 month-old. WT and s334ter rats were injected with the RAR-reporter virus at age 3-4 month-old. Final volume of injections was 1-1.5 μL for mice and 5 μL for rats. […]

[1] = tested on: retinoic acid receptor β (RARβ); assay: Immunolabeling of RARβ in retinal cross-sections after intravitreal injection; assay type: in vivo, mouse; details: 5-6 days after intravitreal ATRA 100 nM versus vehicle
Experimental: The same procedure was carried out for detection of RARβ in mouse retinas following injection of vehicle or ATRA. Slides were incubated with a primary rabbit anti-RARβ antibody (ab53161, Abcam) and detected using an Alexa Fluor-488 conjugated goat anti-rabbit secondary antibody (Life Technologies). […] Retinas were collected 5-6 days following injection with vehicle, ATRA, or ATRA and Liarozole.
Imaging and Analysis. […] RARE double reporter virus in rats, RARb immunolabeling and TUNEL assay were imaged using a Laser Scanning Confocal Microscope (LSM 780 NLO, Zeiss), using Zen software and default configuration for RFP, GFP, AF488 and nuclear-ID detection.

RAR = RAR dual fluorescent reporter (RARE-SV40-GFP / CMV-RFP) in HEK293 cells; assay type: cell-based, human
RGCs in rd10 retina = assay: MEA recording of light-flash responses in partially degenerated rd10 retina; assay type: in vivo, mouse
Experimental: as §1
Multi Electrode Array Recordings. For extracellular recordings, a flat-mounted retina was placed ganglion cell layer down onto a 60-electrode Multi-Electrode Array (MEA 1060-2-BC, Multi-Channel Systems). After mounting the retina, photoswitches were applied for 30 min, followed by a 15 min wash. BENAQ was applied at a concentration of 100 μM and QAQ at 300 μM. A solution containing a mixture of neurotransmitter receptor blockers isolated RGCs from synaptic inputs: (in μM) 10 AP4, 40 DNQX, 30 AP5, 10 SR-95531, 50 TPMPA, 10 strychnine, and 50 tubocurarine. Extracellular spikes were high-pass filtered at 200 Hz and digitized at 20 kHz and were counted when exceeding 4 SD from the mean background voltage signal. Typically, each electrode recorded spikes from one to three individual RGCs. Principal component analysis of the spike waveforms was used for sorting spikes generated by individual cells (Offline Sorter, Plexon). Stimulation light was generated from a mercury arc lamp. Unfiltered broad spectrum light was used for BENAQ-treated retinas. Narrow band optical filters (Chroma) were used to deliver alternating intervals of 380 nm and 500 nm for stimulation of QAQ-treated as described previously (5,12). The Photoswitch Index (5) (PI) was established for individual retinas in light/darkness for treatment with BENAQ or in 380 nm/500 nm light for treatment with QAQ (11,12).
Data Analysis and Statistics. Unless otherwise stated, all statistical significance (p-value) calculations were performed using the two-tailed unpaired Student's t test. Results with p<0.05 were considered significant. P-values are: *<0.05, **<0.01, ***<0.001. Pairwise comparisons for non-parametric data employed the Wilcoxon Rank Sum Test or the Mann-Whitney U-test. In the case where ANOVA was employed, bootstrapping was used to account for unequal group sizes and a Tukey HSD test was employed as a post-hoc test to define which comparisons and interactions produced statistically significant changes. A modified Thompson-Tau method was employed for the detection of outliers. Non-normal data distributions were analyzed using the Kruskal-Wallis ANOVA with a Dunn's post hoc test. Sigmoidal curves were fit using OriginPro™ and the output curves for vehicle and BMS-493 are y=START+(END−START)*x^n/(k^n+x^n).
Injections. Intravitreal injections: Adult mice and rats were intravitreally injected with drugs or viruses. Before injection, animals were anesthetized with isoflurane (2%) and their pupils were dilated with tropicamide (1%) and phenylephrine (2.5%). Proparacaine (0.5%) was used as a topical analgesic. Genteal was applied under a glass coverslip to keep the cornea lubricated. An incision was made through the sclera below the ora serrata with a 30G needle. Solutions were injected into the vitreous with a blunt-ended 33G Hamilton syringe. After injection, the antibiotic tobramycin (0.3%) was applied to the eye. […]

Compound	increase of YO-PRO-1 labeling (RGCs in WT retina; WT mice, 3-7 days after intravitreal injection, versus vehicle)	percentage of YO-PRO-1 positive cells (RGCs in WT retina; WT mice, intravitreal injection 3-7 days before, ATRA 100 nM, liarozole 100 μM, retinaldehyde 1 μM, DEAB 20 μM, mean±SEM)	reversibility of ATRA-induced YO-PRO-1 loading (RGCs in WT retina; WT retina, intravitreal ATRA 100 nM)	Yo-Pro-1 labeling of WT-RGCs, result in words (RGCs in WT retina; WT retina, substance injected intravitreally alone)	RARβ level in RGCs / ganglion cell layer [1]	GFP expression of the RAR reporter (RAR; HEK293, ATRA 1 μM, 48 hrs)	increase in GFP to RFP ratio (RAR; HEK293, different doses and times of ATRA, with 100 μM liarozole)	percentage of YO-PRO-1 positive cells, ATRA-induced labeling with blocker (RGCs in WT retina; WT mice injected with ATRA, TNP-ATP bath-applied ex vivo or BMS-493 co-injected, mean±SEM)	I50, midpoint of the intensity vs. response curve (RGCs in rd10 retina; 6-week-old rd10, 3-7 days after intravitreal injection, vehicle eye 1.73 μW)	Max, peak response (ratio of firing rate in the light:dark) (RGCs in rd10 retina; 6-week-old rd10, 3-7 days after intravitreal injection, vehicle eye 3.68)	RGC response to a flash of dim light, in words (RGCs in rd10 retina; rd10, 50 ms flash, 0.2 μW, vehicle-treated retinas showed no response)	background (spontaneous) firing in darkness, in words (RGCs in rd10 retina; rd10, BMS-493-injected eye)	response threshold (light intensity) (RGCs in rd10 retina; rd10, BMS-493-injected eye, vehicle-injected 0.85 μW)	light response compared between drug-injected and vehicle-injected eye of each animal, in words (RGCs in rd10 retina; rd10, n=5, paired)	shift of the intensity-response curve, in words (RGCs in rd10 retina; rd10, range of light intensities, versus vehicle)
CC1=C(/C=C/C(C)=C/C=C/C(C)=C/C(=O)O)C(C)(C)CCC1 [ATRA, all-trans retinoic acid]	2 fold	15.80±3.10%	reversible; also recorded: disappeared 6 weeks after injection	significantly increased the fraction of cells incorporating Yo-Pro-1	significant increase in RARβ; also recorded: upregulation of the β-subunit of RAR	significant increase in GFP expression only following ATRA treatment; also recorded: induced GFP expression	dose- and time-dependent	–	–	–	–	–	–	–	–
CC1(C)CC=C(C#Cc2ccccc2)c2cc(/C=C/c3ccc(C(=O)O)cc3)ccc21 [BMS-493]	–	–	–	–	–	–	–	5.74±1.54%	0.35 μW	4.77	shows a response in BMS-493 injected animals but not vehicle injected mice; also recorded: transient increase in RGC firing in response to a brief flash (50 ms) of dim light	reduced spontaneous activity; also recorded: decrease in the background firing rate in darkness	0.2 μW	significantly increased light response in every subject; also recorded: observed in all 5 animals tested; also recorded: enhanced the light response in all mice tested	leftward and upward shift of fitted sigmoidal curves; also recorded: increase in sensitivity and peak response to light

— patent US20240398738A1, “MANIPULATION OF THE RETINOIC ACID SIGNALING PATHWAY” (THE REGENTS OF THE UNIVERSITY OF CALIFORNIA, priority 2017, published 2024)
